Measurements reported in patent US20250049727A1, “COMPOSITIONS FOR THE DELIVERY OF PAYLOAD MOLECULES TO AIRWAY EPITHELIUM” (ModernaTX, Inc., priority 2021, published 2025).
Counter-ions that a name gives are not always drawn.

Experiment: Nanoparticle zeta potential (Malvern Zetasizer Nano ZS)
Format: physicochemical
Conditions: LNP with sterol amine, core LNP Compound 18, DSPC, Cholesterol, and DMG-PEG 2K, [mRNA] 0.01 mg/mL in 0.1×PBS
Protocol: LNPs were prepared according to Example 2. Zeta potential was measured by diluting LNPs to [mRNA] 0.01 mg/mL in 0.1×PBS on a Malvern Zetasizer (Nano ZS).

Compound	Zeta Potential (β-sitosterol)	Zeta Potential
CC(C)CCC[C@@H](C)[C@H]1CC[C@H]2[C@@H]3CC=C4C[C@@H](OC(=O)NCCNC(=N)N)CC[C@]4(C)[C@H]3CC[C@]12C [SA23, (3S,8S,9S,10R,13R,14S,17R)-10,13-dimethyl-17-((R)-6-methylheptan-2-yl)-2,3,4,7,8,9,10,11,12,13,14,15,16,17-tetradecahydro-1H-cyclopenta[a]phenanthren-3-yl (2-guanidinoethyl)carbamate, hydrochloride salt]	12.7 mV	–
CC(C)CCC[C@@H](C)[C@H]1CC[C@H]2[C@@H]3CC=C4C[C@@H](OC(=O)NCCCNCCCCN)CC[C@]4(C)[C@H]3CC[C@]12C [SA30, (3S,8S,9S,10R,13R,14S,17R)-10,13-Dimethyl-17-((R)-6-methylheptan-2-yl)-2,3,4,7,8,9,10,11,12,13,14,15,16,17-tetradecahydro-1H-cyclopenta[a]phenanthren-3-yl (3-((4-aminobutyl)amino)propyl)carbamate dihydrochloride]	8.7 mV	–
CC(C)CCC[C@@H](C)[C@H]1CC[C@H]2[C@@H]3CC=C4C[C@@H](OC(=O)N(CCCN)CCCCN)CC[C@]4(C)[C@H]3CC[C@]12C [SA29, (3S,8S,9S,10R,13R,14S,17R)-10,13-Dimethyl-17-((R)-6-methylheptan-2-yl)-2,3,4,7,8,9,10,11,12,13,14,15,16,17-tetradecahydro-1H-cyclopenta[a]phenanthren-3-yl (4-aminobutyl)(3-aminopropyl)carbamate dihydrochloride]	8.3 mV	–
CC(C)CCC[C@@H](C)[C@H]1CC[C@H]2[C@@H]3CC=C4C[C@@H](OC(=O)CCC(=O)N(CCCN)CCCCN)CC[C@]4(C)[C@H]3CC[C@]12C [SA31, (3S,8S,9S,10R,13R,14S,17R)-10,13-Dimethyl-17-((R)-6-methylheptan-2-yl)-2,3,4,7,8,9,10,11,12,13,14,15,16,17-tetradecahydro-1H-cyclopenta[a]phenanthren-3-yl 4-((4-aminobutyl)(3-aminopropyl)amino)-4-oxobutanoate dihydrochloride]	8.6 mV	–
CC(C)CCC[C@@H](C)[C@H]1CC[C@H]2[C@@H]3CC=C4C[C@@H](OC(=O)N(CCCN)CCCCNCCCN)CC[C@]4(C)[C@H]3CC[C@]12C [SA3, (3S,8S,9S,10R,13R,14S,17R)-10,13-dimethyl-17-((R)-6-methylheptan-2-yl)-2,3,4,7,8,9,10,11,12,13,14,15,16,17-tetradecahydro-1H-cyclopenta[a]phenanthren-3-yl (3-aminopropyl)(4-((3-aminopropyl)amino)butyl)carbamate, trihydrochloride salt]	–	10.6 mV
